From patent publication US8043815B2, “Methods for analysis of PDEF and survivin as interconnected cancer biomarkers and targets for personalized medicine” (Health Research, Inc., priority 2007, dated 2011)

Legend:
Format in all cases: cell-based
[1] = test system: MDA-MB-231 breast cancer cells; assay: Cell growth and cell death of MDA-MB-231 cells after sequential MSA / Zebularine treatment (digital images); settings: images 48 hours after new medium replacement
Method: (§1) FIG. 8 provides a photographic representation of results showing a synergistic effect of DNA methylation inhibitors in combination with DNA methylation inducers/promoters on massive cancer cell death. Sequential treatment of MDA-MB-231 breast cancer cells with methylseleninic acid (MSA, a DNA methylation inducer/promoter) for 48 hours and Zebularine (a DNA methylation inhibitor) for 24 hours alone or in combination as shown. Growth medium with drugs was replaced with complete new medium without drugs 24 hour after Zebularine treatment. Images were then taken using a digital camera 48 hours after new medium replacement.
as §1, with “Sequential” for “FIG. 8 provides a photographic representation of results showing a synergistic effect of DNA methylation inhibitors in combination with DNA methylation inducers/promoters on massive cancer cell death. Sequential”

[2] = test system: PDEF-negative ovarian cancer cell lines; assay: Western blot of PDEF and survivin expression in PDEF-negative ovarian cancer cell lines treated with methylation inhibitor
Method: FIGS. 6A and 6B provide photographic representations of results obtained from Western blotting analysis of PDEF expression in PDEF-negative ovarian cancer cell lines treated with and without 5-aza-2-deoxycytidine (5-Aza-dC) for 5 days at 1 μM (FIG. 6A) or different concentrations of 5-Aza-dC (FIG. 6B).
We analyzed whether the loss of PDEF expression in cancer tissues during cancer progression is the result of epigenetic methylation of the PDEF gene. Four PDEF-negative ovarian cancer cell lines were treated with and without the methylation inhibitor 5-aza-2-deoxycytidine (5-Aza-dC) for 5 days at 1 μM (FIG. 6A) or different concentration of 5-Aza-dC (FIG. 6B). Cells were then lysed and analyzed for PDEF expression by Western blots.

[3] = test system: HCT116 colon cancer cells with double knockout (DKO) of DNMT1 and DNMT3b; assay: Western blot of survivin and PDEF expression in HCT116 DNMT1/DNMT3b double knockout cells; settings: treated for 3 days
Method: (§2) FIG. 7 provides a photographic representation of results obtained from differential modulation of survivin and PDEF expression in an HCT116 parental colon cancer cell line, versus in an HCT116 cell line in which both the DNMT1 and DNMT3b DNA methyltransferases have been knocked out. Both HCT116 parental and double knockout (DNMT1^−/−/DNMT3B^−/−) colon cancer cell lines were treated with and without the methylation inhibitor 5-Aza-dC for 3 days as shown. Cells were lysed and analyzed for the expression of survivin and PDEF by western blots. Actin is the internal control of protein loading.
(§3) Since it is know that the survivin gene is not methylated, despite our identification of a CpG island in the survivin gene, this Example further supports that demethylation of PDEF via a DNA methylation inhibitor can facilitate downregulation of survivin expression.

[4] = test system: HCT116 parental colon cancer cells; assay: Western blot of survivin and PDEF expression in HCT116 parental colon cancer cells; settings: treated for 3 days
Method: as §2, §3

Row | SMILES | cell growth inhibition ([1]; MSA 48 hours, Zebularine 24 hours, alone) | induction of cell death ([1]; alone or sequential combination (MSA then Zebularine)) | PDEF expression by western blots ([2]; four PDEF-negative ovarian cancer cell lines, 5 days at 1 μM or different concentration) | expression of survivin by Western blots ([2]; ovarian cancer cell lines with restored PDEF expression, different concentrations of 5-Aza-dC, 5 days (FIG. 6B)) | PDEF expression by western blots [3] | survivin expression by western blots [3] | PDEF expression by western blots [4] | survivin expression by western blots [4]
1 | C[Se](=O)O [MSA, methylseleninic acid] | only moderately inhibit cell growth | without induction of cell death |  |  |  |  |  | 
2 | Nc1ncn([C@H]2C[C@H](O)[C@@H](CO)O2)c(=O)n1 [5-Aza-dC, 5-aza-2-deoxycytidine] |  |  | two of the four ovarian cancer cell lines showed restored expression of PDEF | reduces or eliminates the expression of survivin | no effect | no effect | induces PDEF expression | decreases survivin expression
